Results as given in patent US12540141B2, “Spiropyrrolidine derived antiviral agents” (priority 2020, dated 2026).

Each compound was assayed against SARS-CoV-2 3CL-protease (Severe acute respiratory syndrome coronavirus 2, UniProt P0DTD1) (assay: SARS-CoV-2 3C-Like (3CL) Protease Fluorescence Assay (FRET)). Conditions: SARS-CoV-2 3CL-protease 10 nM, 30 min preincubation at RT, substrate 40 μM.
Type: biochemical
`CC(C)C[C@@H](C(=O)N1C[C@]2(C[C@H]1C(=O)C(=O)NC1CCCCC1)C(=O)Nc1ccccc12)N(C)C(=O)c1cc2c(F)cc(F)cc2[nH]1` [Example 155] was tested, and the IC50 was greater than 1 µM.
For `CC(C)(C)C[C@H](NC(=O)c1cc2c(Cl)cccc2[nH]1)C(=O)N1C[C@]2(C[C@H]1C#N)C(=O)Nc1ccc(Cl)cc12` [Example 450], the IC50 was less than 0.1 µM.
With `COc1ccccc1CN(C(=O)C(F)(F)F)[C@@H](CC(C)C)C(=O)N1C[C@]2(C[C@H]1C#N)C(=O)Nc1ccccc12` [Example 431] the IC50 was greater than 1 µM.
For `CC(C)C[C@@H](C(=O)N1C[C@]2(C[C@H]1C#N)C(=O)Nc1ccccc12)N(C)C(=O)C1(c2ccc3c(c2)OC(F)(F)O3)CC1` [Example 329], the IC50 was less than 0.1 µM.
`CC(C)C[C@@H](C(=O)N1C[C@]2(C[C@H]1C#N)C(=O)Nc1ccccc12)N(C)C(=O)c1cc2cccnc2[nH]1` [Example 464] was tested, and the IC50 was less than 0.1 µM.
In the case of `CC(C)C[C@@H](C(=O)N1C[C@]2(C[C@H]1C#N)C(=O)Nc1ccccc12)N(C)C(=O)c1cn(-c2cccc(Cl)c2)nn1` [Example 286], the IC50 is reported as less than 0.1 µM.
In the case of `C[C@@H](OC(=O)N[C@@H](CC(C)(C)C)C(=O)N1C[C@]2(C[C@H]1C#N)C(=O)Nc1ccc(Cl)cc12)c1ccc(F)cc1` [Example 495], the IC50 is reported as less than 0.1 µM.
Work on `CC(C)C[C@@H](C(=O)N1C[C@]2(C[C@H]1C#N)C(=O)Nc1ccccc12)N(C)C(=O)c1cc(OC2CC2)c2nc(C3CC3)sc2c1` [Example 317] yielded an IC50 of less than 0.1 µM.
In the case of `CC(C)C[C@@H](C(=O)N1C[C@]2(C[C@H]1C#N)C(=O)Nc1ccccc12)N(C)C(=O)CCN` [Example 367], the IC50 is reported as less than 0.1 µM.
For `C[C@@H]1CCC[C@H](C)N1CCC(=O)N(C)[C@@H](CC(C)(C)F)C(=O)N1C[C@]2(C[C@H]1C#N)C(=O)Nc1ccccc12` [Example 545], the IC50 was less than 0.1 µM.
Work on `CC(C)C[C@@H](C(=O)N1C[C@]2(C[C@H]1C#N)C(=O)Nc1ccccc12)N(C)C(=O)c1cc2ccc(Cl)c(Cl)c2[nH]1` [Example 334] yielded an IC50 of less than 0.1 µM.
`CC(C)C[C@@H](C(=O)N1C[C@]2(C[C@H]1C#N)C(=O)Nc1ccccc12)N(C)C(=O)c1ccc2cnn(C)c2c1` [Example 224] gave an IC50 of less than 0.1 µM.
`CC(C)C[C@@H](C(=O)N1C[C@]2(C[C@H]1C#N)C(=O)Nc1ccccc12)N(C)C(=O)c1cccc(-c2ccc(C(F)(F)F)cc2)c1` [Example 263] gave an IC50 of 0.1 to 1 µM.
In the case of `CC(C)C[C@@H](C(=O)N1C[C@]2(C[C@H]1C#N)C(=O)Nc1ccccc12)N(C)C(=O)c1nc2ccccc2s1` [Example 206], the IC50 is reported as 0.1 to 1 µM.
With `[2H]C([2H])([2H])N(C(=O)c1cn(C2CCC2)nn1)[C@@H](Cc1ccc(F)cc1)C(=O)N1C[C@]2(C[C@H]1C#N)C(=O)Nc1ccccc12` [Example 390] the IC50 was less than 0.1 µM.
`C[C@H](C(=O)N(C)[C@@H](CC(C)(C)C)C(=O)N1C[C@]2(C[C@H]1C#N)C(=O)Nc1ccccc12)c1cnn(C)c1` [Example 373] gave an IC50 of less than 0.1 µM.
`CC(C)C[C@@H](C(=O)N1C[C@]2(C[C@H]1C#N)C(=O)Nc1ccccc12)N(C)C(=O)c1ccnc2ccccc12` [Example 294] showed an IC50 of less than 0.1 µM.
In the case of `Cc1ccc2cc(C(=O)N(C)[C@@H](CC(C)C)C(=O)N3C[C@]4(C[C@H]3C#N)C(=O)Nc3ccccc34)ccc2n1` [Example 234], the IC50 is reported as less than 0.1 µM.
`CC(C)C[C@@H](C(=O)N1C[C@]2(C[C@H]1C#N)C(=O)Nc1ccccc12)N(C)C(=O)[C@@H](c1cnn(C)c1)C(C)C` [Example 348] gave an IC50 of less than 0.1 µM.
For `CN(C(=O)c1cnn(-c2ccc(F)cc2)c1)[C@@H](CC1CC1)C(=O)N1C[C@]2(C[C@H]1C#N)C(=O)Nc1ccccc12` [Example 405], the IC50 was less than 0.1 µM.
In the case of `CC(C)C[C@H](NC(=O)c1cc2c(F)cccc2[nH]1)C(=O)N1C[C@]2(C[C@H]1C#N)C(=O)Nc1cc(Cl)ccc12` [Example 531], the IC50 is reported as less than 0.1 µM.
With `CN(C(=O)c1cnn(-c2ccc(C(F)(F)F)cc2)c1)[C@@H](CC1CC1)C(=O)N1C[C@]2(C[C@H]1C#N)C(=O)Nc1ccccc12` [Example 406] the IC50 was less than 0.1 µM.
Work on `CC(C)C[C@@H](C(=O)N1C[C@]2(C[C@H]1C#N)C(=O)Nc1ccccc12)N(C)C(=O)c1nc2c(F)c(F)c(F)cc2[nH]1` [Example 273] yielded an IC50 of 0.1 to 1 µM.
Compound `C#CCOC[C@H](NC(=O)c1cc2c(OC)cccc2[nH]1)C(=O)N1C[C@]2(C[C@H]1C#N)C(=O)Nc1ccccc12` [Example 127] has an IC50 of less than 0.1 µM.
For `CC(C)C[C@@H](C(=O)N1C[C@]2(C[C@H]1C#N)C(=O)Nc1ccccc12)N(C)C(=O)c1cncc(F)c1` [Example 196], the IC50 was less than 0.1 µM.
For `COc1cccc(CN(C(=O)C(F)(F)F)[C@@H](CC(C)C)C(=O)N2C[C@]3(C[C@H]2C#N)C(=O)Nc2ccccc23)c1` [Example 430], the IC50 was greater than 1 µM.
Work on `CC(C)C[C@@H](C(=O)N1C[C@]2(C[C@H]1C#N)C(=O)Nc1ccccc12)N(C)C(=O)c1cn(-c2ccc(Cl)cc2)nn1` [Example 284] yielded an IC50 of less than 0.1 µM.
`CC(C)C[C@@H](C(=O)N1C[C@]2(C[C@H]1C(=O)CO)C(=O)Nc1ccccc12)N(C)C(=O)c1cc2c(F)cc(F)c(F)c2[nH]1` [Example 158] showed an IC50 greater than 1 µM.
`COc1ccc(CN(C(=O)C(F)(F)F)[C@@H](CC(C)C)C(=O)N2C[C@]3(C[C@H]2C#N)C(=O)Nc2ccccc23)cc1` [Example 429] was tested, and the IC50 was greater than 1 µM.
`CC(C)C[C@@H](C(=O)N1C[C@]2(C[C@H]1C#N)C(=O)Nc1ccccc12)N(C)C(=O)c1c(Cl)cc(Cl)cc1Cl` [Example 185] was tested, and the IC50 was less than 0.1 µM.
Compound `CC(C)C[C@@H](C(=O)N1C[C@]2(C[C@H]1C#N)C(=O)Nc1ccc(-c3ccccn3)cc12)N(C)C(=O)c1cc2c(F)cc(F)cc2[nH]1` [Example 516] has an IC50 of less than 0.1 µM.
Work on `CC(C)C[C@@H](C(=O)N1C[C@]2(C[C@H]1C#N)C(=O)Nc1ccccc12)N(C)C(=O)c1cccc2ncccc12` [Example 214] yielded an IC50 of less than 0.1 µM.
With `CC(C)C[C@@H](C(=O)N1C[C@]2(C[C@H]1C#N)C(=O)Nc1ccccc12)N(C(=O)OCc1ccccc1)C(C)C` [Example 160] the IC50 was greater than 1 µM.
Work on `CC(C)C[C@@H](C(=O)N1C[C@]2(C[C@H]1C#N)C(=O)Nc1ccccc12)N(C)C(=O)N1CC[C@H](O)C1` [Example 335] yielded an IC50 of 0.1 to 1 µM.
With `CC(C)C[C@@H](C(=O)N1C[C@]2(C[C@H]1C#N)C(=O)Nc1ccccc12)N(C)C(=O)c1ccc(OC(F)(F)F)c(F)c1` [Example 179] the IC50 was less than 0.1 µM.
`CN(C(=O)Cc1ccncc1)[C@@H](CC(C)(C)F)C(=O)N1C[C@]2(C[C@H]1C#N)C(=O)Nc1ccc(Cl)cc12` [Example 477] gave an IC50 of less than 0.1 µM.
`CC(C)C[C@@H](C(=O)N1C[C@]2(C[C@H]1C#N)C(=O)Nc1ccccc12)N(C)C(=O)c1cc(F)ccn1` [Example 197] was tested, and the IC50 was 0.1 to 1 µM.
In the case of `C=CC(=O)N(C)[C@@H](CC(C)(C)F)C(=O)N1C[C@]2(C[C@H]1C#N)C(=O)Nc1ccccc12` [Example 535, N—((S)-1-((3R,5′S)-5′-cyano-2-oxospiro[indoline-3,3′-pyrrolidin]-1′-yl)-4-fluoro-4-methyl-1-oxopentan-2-yl)-N-methylacrylamide], the IC50 is reported as 0.1 to 1 µM.
`CC(C)C[C@@H](C(=O)N1C[C@]2(C[C@H]1C#N)C(=O)Nc1ccccc12)N(C)C(=O)c1cc2ccccc2s1` [Example 207] gave an IC50 of less than 0.1 µM.
`[2H]C([2H])([2H])N(C(=O)c1ccc2ncc(C(F)(F)F)cc2c1)[C@@H](CC(C)(C)C)C(=O)N1C[C@]2(C[C@H]1C#N)C(=O)Nc1ccccc12` [Example 381] was tested, and the IC50 was less than 0.1 µM.
With `COc1cccc2[nH]c(C(=O)N(C)[C@@H](COC(C)(C)C)C(=O)N3C[C@]4(C[C@H]3C#N)C(=O)Nc3ccccc34)cc12` [Example 370] the IC50 was less than 0.1 µM.
